Molecules are shown by their SMILES. Where two headings read alike, the source gives them in different places.

The test system of data set [1] is Huh7 cells. The data set is described as follows: Huh7 cell proliferation assay (CCK8). As to conditions: for IC50: Homo sapiens. The format is cell-based, human. As to the method: CCK8 assay kit was used to determine antiproliferative activity of synthesized compounds against Huh7 cell line. First, Huh7 cells were seeded into 96-well plates at a density of 3000 cells/well and incubated overnight. Cells were then co-incubated with compounds at 8 concentrations for 72 h. Then, the cell proliferation was determined by the CCK8 kit according to the standard protocol. Experiments were performed in triplicate.

The subject of data set [2] is Huh7 xenograft. The data set is described as follows: Huh7 mouse xenograft model, antitumor efficacy. The format is in vivo, NSG mouse. As for the experimental part:
Based on the favorable in vitro potency and low toxicity, the in vivo antitumor efficacy of compound 22 was further evaluated in the NSG mouse (NOD scid gamma mouse) xenograft model from human Huh7 cells. Sorafenib, the first-line treatment for primary hepatocellular carcinoma (HCC) patients, served as the control. Compound 22 was tested as a monotherapy and in combination with Sorafenib.
The animals were administered 10 mg/kg of compound 22 twice a week for four weeks via intraperitoneal (IP) injection.
The mice were administered 50 mg/kg of compound 22 every three day for 24 days via intraperitoneal (IP) injection. Sorafenib was administered orally at a dose of 100 mg/kg following the same schedule.
Tumors were implanted by subcutaneous injection of 5×10^6 Huh7 cells in 100 μL of PBS containing 10% matrix gel (Coming, NY, USA), into the right flank of the mouse. When the tumor volume reached about 85 mm^3, mice were randomized into the vehicle control group (n=5) and a treatment group (n=5). The vehicle group (n=5) received the vehicle only (50% phosal 50 PG, 45% miglyol 810 N and 5% polysorbate 80), while the treatment group (n=5) was given compound 22 (50 mg/kg in 50% phosal 50 PG, 45% miglyol 810 N and 5% polysorbate 80) via IP injection every three days. After 24 days, mice were euthanized. Sorafenib (100 mg/kg, every three day) was dissolved in 75% Ethanol and Cremophor EL (1:1) and administered directly into the animals' stomachs using a gastric probe. Tumor size and body weight were measured every 3 days, and tumor volume was estimated using the formula volume=½×length×width^2. Tumor growth inhibition value (TGI) was calculated as TGI (%) [1−Vt/Vc]×100, where Vc and Vt were […].

Data set [3] has as its system TAZ-TEAD. The data set is described as follows: Co-immunoprecipitation of endogenous TAZ and TEAD in NCI-H226 cells. Type of data set: cell-based. Conditions: 1 μM, 24 hours. As for the experimental part:
To assess if compound 22 inhibits the interaction between YAP/TAZ and TEAD proteins within the cell, compound 22 was administered to NF2-deficient NCI-H226 cells for 24 hours. Subsequently, the endogenous TEAD protein was isolated through immunoprecipitation using a pan-TEAD antibody and examined the immunocomplexes for the presence of YAP/TAZ proteins using anti-YAP/TAZ antibodies (as depicted in FIG. 18).
[…] protein lysate extracted using lysis buffer were incubated with 5 μL pan-TEAD antibody (CST #13295, 33 g/ml) at 4 ° C overnight with rotation, and then incubated with 15 μL Protein G magnetic beads (Fisher #88847) at R.T. for 1 hour with rotation. After binding, beads were washed three times with lysis buffer and one time with ddH2O. IP samples were eluted using 1× gel loading buffer supplied with 20 mM DTT and boiled at 96 ° C for 10 min. […] protein lysate were used for input, and 3% IP flow-thru were used for binding efficiency control. *0 indicated DMSO control. For the detection process, primary antibodies used were: YAP/TAZ rabbit monoclonal antibody (mAb) at a dilution of 1:2000, CST #8418S; Pan-TEAD rabbit mAb at 1:2000, CST #13295S; and 3-actin mouse mAb at 1:8000, Sigma #A5316. Secondary antibodies applied in 1× TBST were: Rabbit IgG-HRP at 1:10000 and Mouse IgG-HRP also at 1:10000.

Data set [4] relates to Huh7 cells. The data set is described as follows: Cell cycle analysis by flow cytometry, Huh7. As to conditions: 5 and 10 μM, 48 hours. The format is cell-based, human. As for the experimental part:
To study the potential mechanistic pathways responsible for cell proliferation inhibition by compound 22, the change of cell cycle in Huh7 and HepG2 liver cancer cell lines was evaluated. DNA-based cell cycle analysis was performed using flow cytometry. […] To explore whether compound 22 also induces G1 phase arrest in HepG2 cells similar to its effects on Huh7 cells, parallel investigations were performed. […] However, the impact of 22 on inducing G1 phase arrest was less pronounced in HepG2 cells compared to Huh7 cells.
For cell cycle analysis, cells were fixed with pre-cold 70% ethanol for 30 minutes. Then the cells were washed with PBS and stained with propidium iodide working solution for 30 minutes in the dark. The stained cells were analyzed by flow cytometry. Cell cycle distribution was analyzed using FlowJo_V10 software. For each experiment, 20000 events per sample were recorded. Percentages of cells in G0/G1, S and G2/M phases were calculated and shown in DNA histograms.
(In general: In flow cytometry, cells or beads pass a laser one at a time.)

The test system of data set [5] is HepG2 cells. The data set is described as follows: Apoptosis by Annexin V/PI flow cytometry, HepG2. As to conditions: 10 μM; 48 h. Type of data set: cell-based, human. As for the experimental part:
In order to gain deeper insights into the underlying anticancer mechanism of compound 22, experiments were performed to validate whether the induction of G1 phase cells by compound 22 was linked to apoptosis. To achieve this, the cells treated with compound 22 were subjected to PI and FITC-annexin V staining to detect apoptotic cells. […] The proportions of total apoptosis including the early stage apoptosis and the later stage of apoptosis were 66.8%, and 83.5%, respectively, at concentrations of 5 and 10 μM. This trend was similarly observed in the case of HepG2 cells. […] The impact of compound 22 on inducing cell apoptosis was less pronounced in HepG2 cells compared to Huh7 cells, aligning with the outcomes of the cell cycle analysis, providing further coherence to the observed effects of compound 22 on these cell lines.
Apoptosis was detected using an Annexin V-FITC apoptosis detection kit (Thermo Fisher Scientific) following the manufacturer’ instructions. Briefly, about 50000 cells were suspended in 500 μl of binding buffer. The cells were incubated with 5 μl FITC-conjugated Annexin V for 15 minutes and incubated with 5 μl propidium Iodide staining solution for 15 minutes in darkness at room temperature. Cell apoptosis was then analyzed by flow cytometry using a FACSCalibur flow cytometer (Becton Dickinson, San Jose, CA).

Data set [6] deals with HepG2 cells. The data set is described as follows: HepG2 cell growth inhibition. As to conditions: Homo sapiens, FIG. 25A. The format is cell-based.
Data set [7] deals with CTGF and CYR61. The data set is described as follows: CTGF and CYR61 expression in xenograft tumor tissue (western blotting). Type of data set: in vivo. As to conditions: vs vehicle groups. An excerpt:
To elucidate the mechanism of compound 22-mediated antitumor activity in vivo, the expression level of CTGF and CYR61 in the tumor tissue were examined by western blotting.
In general terms: In western blotting, separated proteins are transferred to a membrane and probed.

Regarding `O=C(CCl)c1c[nH]c2cc(Cl)c(OCc3cccc(C(F)(F)F)c3)cc12` [Compound 22, 2-chloro-1-(6-chloro-5-((3-(trifluoromethyl)benzyl)oxy)-1H-indol-3-yl)ethan-1-one], the IC50 came out at 0.9 ± 0.3 µM in data set [1] (Huh-7, 72 h, 3 days, CCK8, mean ± SD of three independent experiments, read-out: Cell proliferation assay IC50, Huh7); 0.9 µM in data set [1] (Huh-7, Table 3 column is in μM, read-out: Huh7 cell growth inhibition / proliferation IC50); 2400 nM in data set [6]. The “Activity ratio, 3-CF3 derivative compound 22 vs para-analogue compound 23” value in data set [1] (more active than compound 23, Huh7) was 16 fold. Also, the “Tumor growth inhibition (TGI) rate” value is 78% in data set [2] (10 mg/kg IP twice a week for four weeks) and 75% in data set [2] (50 mg/kg IP every three days for 24 days). The Body weight change result in data set [2] (xenograft mice, FIG. 6C) was “No significant change”. In addition, in data set [3], the “Co-IP of TAZ with pan-TEAD antibody” value was “not affecting TAZ”. Also, the “Percentage of cells in G1 phase, Huh7” value in data set [4] (control group 36.4%) came out at 58.2%. The “Proportion of cells in S/G2 phases, Huh7” value in data set [4] is “distinct decrease”. Also, the “Maximum apoptotic rate (early+late apoptotic), HepG2” value in data set [5] is 69.0%. Moreover, the “CTGF expression in tumor tissue” value in data set [7] is given as “remarkable decrease”. Further, the “CYR61 expression in tumor tissue” value in data set [7] is reported as “remarkable decrease”.

Values taken from patent US20260337177A1, “TEAD CORE INHIBITORS FOR CANCER THERAPEUTICS” (University of Florida Research Foundation, Incorporated, priority 2023, published 2026).
